{
  "source": "paper PMC12736293",
  "about": "“Design of Artificial Peptide Against HIV-1 Based on the Heptad-Repeat Rules and Membrane-Anchor Strategies” (Pharmaceuticals, 2025)",
  "key": {"[1]": {"tested_on": "HIV-1 Env-mediated cell–cell fusion (H9/HIV-1 IIIB cells and MT-2 cells)", "assay_type": "cell-based", "conditions": "for IC50: Calcein AM-labelled H9/HIV-1 IIIB cells, peptide 30 min at 37 °C, then MT-2 cells 2 h, fused cells counted by fluorescence microscopy, triplicate, mean ± SD, read-out: IC50, inhibitory activity on HIV-1 Env-mediated cell–cell fusion", "description": "4.2. HIV-1 Env-Mediated Cell–Cell Fusion Assay\nBriefly, the fluorescent reagent Calcein AM (abcam, Shanghai, China) was used to label H9/HIV-1 IIIB cells (obtained from the Inner Mongolia Autonomous Region New Drug Screening Engineering Research Center in Inner Mongolia Medical University, Hohhot, China). First, 2.5 μL of Calcein AM was used to stain 2 × 10^5 H9/HIV-1 IIIB cells. After labeling at 37 °C for 30 min, the cells were washed twice with PBS (Thermo Fisher Scientific, Waltham, MA, USA) and resuspended in fresh RPMI 1640 (Sigma-Aldrich, St. Louis, MO, USA) medium supplemented with 10% FBS. Next, 50 μL of diluted peptides and 50 μL of a mixture containing 2 × 10^5 H9/HIV-1 IIIB cells/mL were added to a 96-well cell culture plate and incubated at 37 °C for 30 min. Subsequently, 1 × 10^5 MT-2 cells were added to the mixture and cultured at 37 °C for 2 h. The fused cells were quantified using an inverted fluorescence microscope. The IC50 values were calculated using CalcuSyn software (Version 2.0)."}, "[2]": {"tested_on": "HIV-1 pseudovirus derived from the JFRL macrophagic strain (subtype B) on U87 CD4+ CCR5+ cells", "assay_type": "cell-based", "conditions": "luciferase read-out 48 h post-infection", "description": "4.3. Neutralization Assay of HIV-1 Pseudovirus\nBriefly, U87 CD4^+ CCR5^+ cells (obtained from the Inner Mongolia Autonomous Region New Drug Screening Engineering Research Center in Inner Mongolia Medical University, Hohhot, China) (1 × 10^4 cells/well) were plated in 96-well tissue culture plates and incubated at 37 °C in a humidified 5% CO2 atmosphere for 12 h to allow cell adherence. Serial dilutions of the test peptides were prepared, and each dilution was mixed with the HIV-1 pseudovirus derived from the JFRL macrophagic strain (subtype B). After incubating the virus-peptide mixtures at 37 °C for 30 min to allow interaction, the mixtures were transferred to the pre-seeded U87 CD4^+ CCR5^+ cells. At 12 h post-infection, the culture medium was refreshed to remove unbound viruses and excess peptides. Forty-eight hours post-infection, the cells were lysed using Cell Culture Lysis Reagent (Promega, Madison, WI, USA), and the luminescence intensity (reflecting luciferase activity) was quantified using the Luciferase Assay System (Promega, E4030) according to the manufacturer’s instructions."}, "[3]": {"molecular_target": "T1, N36/C34 six-helix bundle (6-HB) (Human immunodeficiency virus type 1 group M subtype B, UniProt P04578)", "T1 construct": "corresponding to the NHR region of gp41 (residues 546–581); made in house; host or cells: chemical synthesis (Fmoc solid-phase)", "T1 sequence (P04578 546-581)": "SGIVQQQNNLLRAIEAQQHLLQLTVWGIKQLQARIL", "assay": "SE-HPLC analysis of 6-HB formation between N36 and C34", "assay_type": "biochemical, HIV-1", "conditions": "gradual addition of peptide to the C34/N36 mixture; PBS pH 7.4, BioSep-SEC-S2000, 210 nm"}, "[4]": {"molecular_target": "T1, N36/C34 six-helix bundle (6-HB)", "assay": "N-PAGE detection of blocking of 6-HB formation between C34 and N36", "assay_type": "biochemical, HIV-1", "conditions": "N36 (20 μM) with rising peptide concentration, 37 °C 30 min, then C34 (20 μM) 30 min", "description": "Figure 5 (A) N-PAGE to detect the blocking of 6-HB formation between C34 and N36 by EK35S peptide. N36 (20 μM) with or without EK35S was incubated at 37 °C for 30 min, followed by the addition of C34 (20 μM). The mixture was incubated at 37 °C for another 30 min before loading into the gel; (B) N-PAGE to detect the blocking of 6-HB formation between C34 and N36 by EK35S-Plam peptide. N36 (20 μM) with or without EK35S-Plam was incubated at 37 °C for 30 min, followed by the addition of C34 (20 μM). The mixture was incubated at 37 °C for another 30 min before loading into the gel.\n4.6. Methods for Native Polyacrylamide Gel Electrophoresis (N-PAGE)\nPeptides, as well as their equimolar mixtures, were prepared at a final concentration of 100 μM in PBS (10 mM, pH 7.4) and incubated at 37 °C for 30 min. After incubation, the peptide solutions were mixed with methyl green loading buffer in a 1:1 ratio, and 20 μL of each sample was loaded into the wells of the gel. Gel electrophoresis was performed at room temperature, initially at a constant voltage of 90 V for 0.5 h, followed by 150 V for 2–3 h. The gels were then stained with Coomassie Brilliant Blue G250 (Bio-Rad, Shanghai, China), and images were captured using the ChampGel 6000 Imaging System (Sage Creation Ltd., Beijing, China)."}, "[5]": {"conditions": "liver microsomes", "protocol": "Phase I Metabolic Stability Assay\n(§1) Experiments were carried out using the Phase I Metabolic Stability Research Kit (IPHASE, Suzhou, China). Solution A in the kit was pre-incubated at 37 °C for 5 min, and solution B was prepared from PBS (100 mM), the subject (or positive substrate), and liver microsomes. The above two were mixed and immediately placed in a 37 °C water bath for incubation. The incubation solution is quantitatively removed from the incubation system at preset time points (0, 5, 10, 15, 30, 60 min), and an equal volume of termination solution is added. Each sample was run in parallel three times. The substrate remaining amount at each time point was determined by RP-HPLC (Shimadzu preparative HPLC system, Shimadzu Corporation, Kyoto, Japan), the substrate remaining percentage was calculated, and the slope k was determined by linear regression analysis to calculate the Elimination half-life and Hepatic microsomal intrinsic clearance."}, "[6]": {"assay": "in vitro", "conditions": "liver microsomes", "protocol": "Phase I Metabolic Stability Assay\nas §1"}},
  "note": "Like-named read-outs stand apart in the source and are kept apart here. Square brackets hold non-standard residues; d marks the D form. Peptide text beside a SMILES is read from it. * marks the point of attachment. X1 = CC(C)CCC[C@@H](C)[C@H]1CC[C@H]2[C@@H]3CC=C4C[C@@H](OC(=O)C*)CC[C@]4(C)[C@H]3CC[C@]12C; Palmitoyl = CCCCCCCCCCCCCCCC(=O)*; βAla = NCCC(=O)O",
  "data": [
    {"compound": "Ac-IEELFKKIEELFKKIEELFKKIEELFKKIEELFKK-NH2 [EK35F]", "values": [
      {"measurement": "IC50", "setting": "[1]", "value": "92.4 ± 9.22", "unit": "µM"},
      {"measurement": "IC50", "setting": "[2]", "value": "110 ± 2.37", "unit": "µM"}
    ]},
    {"compound": "Ac-IEELYKKIEELYKKIEELYKKIEELYKKIEELYKK-NH2 [EK35Y]", "values": [
      {"measurement": "IC50", "setting": "[1]", "value": "23.2 ± 6.72", "unit": "µM"},
      {"measurement": "IC50", "setting": "[2]", "value": "15.2 ± 0.65", "unit": "µM"}
    ]},
    {"compound": "CCCCCCCCCCCCCCCC(=O)NCCCC[C@H](NC(=O)CCNC(=O)[C@H](CCCCN)NC(=O)[C@H](CCCCN)NC(=O)[C@H](CO)NC(=O)[C@H](CC(C)C)NC(=O)[C@H](CCC(=O)O)NC(=O)[C@H](CCC(=O)O)NC(=O)[C@@H](NC(=O)[C@H](CCCCN)NC(=O)[C@H](CCCCN)NC(=O)[C@H](CO)NC(=O)[C@H](CC(C)C)NC(=O)[C@H](CCC(=O)O)NC(=O)[C@H](CCC(=O)O)NC(=O)[C@@H](NC(=O)[C@H](CCCCN)NC(=O)[C@H](CCCCN)NC(=O)[C@H](CO)NC(=O)[C@H](CC(C)C)NC(=O)[C@H](CCC(=O)O)NC(=O)[C@H](CCC(=O)O)NC(=O)[C@@H](NC(=O)[C@H](CCCCN)NC(=O)[C@H](CCCCN)NC(=O)[C@H](CO)NC(=O)[C@H](CC(C)C)NC(=O)[C@H](CCC(=O)O)NC(=O)[C@H](CCC(=O)O)NC(=O)[C@@H](NC(=O)[C@H](CCCCN)NC(=O)[C@H](CCCCN)NC(=O)[C@H](CO)NC(=O)[C@H](CC(C)C)NC(=O)[C@H](CCC(=O)O)NC(=O)[C@H](CCC(=O)O)NC(=O)[C@@H](NC(C)=O)[C@@H](C)CC)[C@@H](C)CC)[C@@H](C)CC)[C@@H](C)CC)[C@@H](C)CC)C(N)=O", "note": "[EK35S-Palm] (Ac-IEELSKKIEELSKKIEELSKKIEELSKKIEELSKK[βAla]K(Palmitoyl)-NH2)", "values": [
      {"measurement": "fold more potent than the parent EK35S", "setting": "[1]; cell–cell fusion and pseudovirus inhibition (Table 2 and Figure 3)", "value": "over 200 fold"},
      {"measurement": "effect on the 6-HB complex peak (SE-HPLC)", "setting": "[3]", "value": "decreased significantly"},
      {"measurement": "effect on the 6-HB band (N-PAGE)", "setting": "[4]", "value": "gradually became significantly lighter"},
      {"measurement": "half-life", "setting": "[5]", "value": 3.61, "unit": "h"}
    ]},
    {"compound": "Enfuvirtide", "values": [
      {"measurement": "IC50", "setting": "[1]", "value": "0.008 ± 0.002", "unit": "µM"},
      {"measurement": "IC50", "setting": "[2]", "value": "0.00824 ± 0.00087", "unit": "µM"}
    ]},
    {"compound": "CC[C@H](C)[C@H](NC(C)=O)C(=O)N[C@@H](CCC(=O)O)C(=O)N[C@@H](CCC(=O)O)C(=O)N[C@@H](CC(C)C)C(=O)N[C@@H](CO)C(=O)N[C@@H](CCCCN)C(=O)N[C@@H](CCCCN)C(=O)N[C@H](C(=O)N[C@@H](CCC(=O)O)C(=O)N[C@@H](CCC(=O)O)C(=O)N[C@@H](CC(C)C)C(=O)N[C@@H](CO)C(=O)N[C@@H](CCCCN)C(=O)N[C@@H](CCCCN)C(=O)N[C@H](C(=O)N[C@@H](CCC(=O)O)C(=O)N[C@@H](CCC(=O)O)C(=O)N[C@@H](CC(C)C)C(=O)N[C@@H](CO)C(=O)N[C@@H](CCCCN)C(=O)N[C@@H](CCCCN)C(=O)N[C@H](C(=O)N[C@@H](CCC(=O)O)C(=O)N[C@@H](CCC(=O)O)C(=O)N[C@@H](CC(C)C)C(=O)N[C@@H](CO)C(=O)N[C@@H](CCCCN)C(=O)N[C@@H](CCCCN)C(=O)N[C@H](C(=O)N[C@@H](CCC(=O)O)C(=O)N[C@@H](CCC(=O)O)C(=O)N[C@@H](CC(C)C)C(=O)N[C@@H](CO)C(=O)N[C@@H](CCCCN)C(=O)N[C@@H](CCCCN)C(=O)NCCC(=O)N[C@@H](CSCC(=O)O[C@H]1CC[C@@]2(C)C(=CC[C@H]3[C@@H]4CC[C@H]([C@H](C)CCCC(C)C)[C@@]4(C)CC[C@@H]32)C1)C(N)=O)[C@@H](C)CC)[C@@H](C)CC)[C@@H](C)CC)[C@@H](C)CC", "note": "[EK35S-Chol] (Ac-IEELSKKIEELSKKIEELSKKIEELSKKIEELSKK[βAla]C(X1)-NH2)", "values": [
      {"measurement": "IC50", "setting": "[1]", "value": "> 100", "unit": "µM"},
      {"measurement": "IC50", "setting": "[2]", "value": "85.7 ± 2.02", "unit": "µM"}
    ]},
    {"compound": "enfuvirtide", "values": [
      {"measurement": "half-life", "setting": "[6]", "value": 2.51, "unit": "h"}
    ]},
    {"compound": "Ac-IEELMKKIEELMKKIEELMKKIEELMKKIEELMKK-NH2 [EK35M]", "values": [
      {"measurement": "IC50", "setting": "[1]", "value": "15.8 ± 8.92", "unit": "µM"},
      {"measurement": "IC50", "setting": "[2]", "value": "25.3 ± 0.85", "unit": "µM"}
    ]},
    {"compound": "Ac-IEELSKKIEELSKKIEELSKKIEELSKKIEELSKK-NH2 [EK35S]", "values": [
      {"measurement": "IC50", "setting": "[1]", "value": "5.98 ± 1.23", "unit": "µM"},
      {"measurement": "IC50", "setting": "[2]", "value": "2.42 ± 0.18", "unit": "µM"},
      {"measurement": "effect on the 6-HB complex peak (SE-HPLC)", "setting": "[3]", "value": "does not affect 6-HB peak"},
      {"measurement": "effect on the 6-HB band (N-PAGE)", "setting": "[4]", "value": "no obvious change"},
      {"measurement": "half-life", "setting": "[6]", "value": 2.22, "unit": "h"}
    ]},
    {"compound": "Ac-IEELIKKIEELIKKIEELIKKIEELIKKIEELIKK-NH2 [EK35]", "values": [
      {"measurement": "IC50", "setting": "[1]", "value": "> 100", "unit": "µM"},
      {"measurement": "IC50", "setting": "[2]", "value": "119 ± 1.39", "unit": "µM"}
    ]},
    {"compound": "IEELSKK IEELSKK IEELSKK IEELSKK IEELSKK-OApc [EK35S-OApc, EK35S conjugated with protected oleanolic acid derivative OApc via click chemistry]", "values": [
      {"measurement": "IC50", "setting": "[1]", "value": "4.82 ± 0.89", "unit": "µM"},
      {"measurement": "IC50", "setting": "[2]", "value": "1.88 ± 0.14", "unit": "µM"}
    ]}
  ]
}
